Data taken from the supplement of paper PMC4862054.

Columns and labels:
Conditions in all cases: incubation time: 72 h
BT-474 [1] = test: normalised response (% of control), CellTox Green; higher = less cell death (100 = DMSO, 0 = benzethonium chloride kill control)
Procedure, shortened: (§1)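 Two readouts were taken after 72 h: CellTox Green fluorescence (485/520 nm) first, then CellTiter-Glo luminescence after 10 min at room temperature. Breast cancer cell lines had been seeded as 20 µl suspension into 384-well plates holding compound at 5 concentrations in 10-fold steps across a compound-specific 10,000-fold range. Each value is a normalised signal at a single concentration, with plates scaled to 0.1 % DMSO (100) and a positive kill control (0).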

BT-549 [2] = test: as above
Procedure, shortened: as §1

CAL-120 [3] = test: as above
Procedure, shortened: as §1

CAL-148 [4] = test: as above
Procedure, shortened: as §1

CAL-51 [5] = test: as above
Procedure, shortened: as §1

CAL-85-1 [6] = test: as above
Procedure, shortened: as §1

DU-4475 [7] = test: as above
Procedure, shortened: as §1

HCC1143 [8] = test: as above
Procedure, shortened: as §1

HCC1599 [9] = test: as above
Procedure, shortened: as §1

HCC1937 [10] = test: as above
Procedure, shortened: as §1

HDQ-P1 [11] = test: as above
Procedure, shortened: as §1

Hs578T [12] = test: as above
Procedure, shortened: as §1

MCF-10A [13] = test: as above
Procedure, shortened: as §1

MDA-MB-231 [14] = test: as above
Procedure, shortened: as §1

MDA-MB-436 [15] = test: as above
Procedure, shortened: as §1

MDA-MB-453 [16] = test: as above
Procedure, shortened: as §1

MDA-MB-468 [17] = test: as above
Procedure, shortened: as §1

MFM-223 [18] = test: as above
Procedure, shortened: as §1

BT-474 [19] = test: normalised response (% of control), CellTiter-Glo; higher = more viable cells (100 = DMSO, 0 = benzethonium chloride kill control)
Method: (§2)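 DSRT, 72 h incubation, CellTox Green / CellTiter-Glo readout. Signal is normalised to DMSO and benzethonium chloride controls. Value is the normalised response at dose 3.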

BT-549 [20] = test: as above
Method: as §2

CAL-120 [21] = test: as above
Method: as §2

CAL-148 [22] = test: as above
Method: as §2

CAL-51 [23] = test: as above
Method: as §2

CAL-85-1 [24] = test: as above
Method: as §2

DU-4475 [25] = test: as above
Method: as §2

HCC1143 [26] = test: as above
Method: as §2

HCC1599 [27] = test: as above
Method: as §2

HCC1937 [28] = test: as above
Method: as §2

HDQ-P1 [29] = test: as above
Method: as §2

Hs578T [30] = test: as above
Method: as §2

MCF-10A [31] = test: as above
Method: as §2

MDA-MB-231 [32] = test: as above
Method: as §2

MDA-MB-436 [33] = test: as above
Method: as §2

MDA-MB-453 [34] = test: as above
Method: as §2

MDA-MB-468 [35] = test: as above
Method: as §2

MFM-223 [36] = test: as above
Method: as §2

SK-BR-3 = test: as above
Method: as §2

Structure (SMILES)	normalised response (BT-474 [1])	normalised response (BT-549 [2])	normalised response (CAL-120 [3])	normalised response (CAL-148 [4])	normalised response (CAL-51 [5])	normalised response (CAL-85-1 [6])	normalised response (DU-4475 [7])	normalised response (HCC1143 [8])	normalised response (HCC1599 [9])	normalised response (HCC1937 [10])	normalised response (HDQ-P1 [11])	normalised response (Hs578T [12])	normalised response (MCF-10A [13])	normalised response (MDA-MB-231 [14])	normalised response (MDA-MB-436 [15])	normalised response (MDA-MB-453 [16])	normalised response (MDA-MB-468 [17])	normalised response (MFM-223 [18])	normalised response (BT-474 [19])	normalised response (BT-549 [20])	normalised response (CAL-120 [21])	normalised response (CAL-148 [22])	normalised response (CAL-51 [23])	normalised response (CAL-85-1 [24])	normalised response (DU-4475 [25])	normalised response (HCC1143 [26])	normalised response (HCC1599 [27])	normalised response (HCC1937 [28])	normalised response (HDQ-P1 [29])	normalised response (Hs578T [30])	normalised response (MCF-10A [31])	normalised response (MDA-MB-231 [32])	normalised response (MDA-MB-436 [33])	normalised response (MDA-MB-453 [34])	normalised response (MDA-MB-468 [35])	normalised response (MFM-223 [36])	normalised response (SK-BR-3)
COc1ccc(-c2ccc3c(N4CCOC[C@@H]4C)nc(N4CCOC[C@@H]4C)nc3n2)cc1CO [AZD8055] (100 nM)	96.5%	103%	98.2%	79.2%	82.3%	104%	94.9%	80.1%	87.7%	97.7%	109%	93.9%	84.6%	94.6%	97.7%	85.5%	13.6%	67%	72%	40.2%	41.5%	49.5%	35.7%	41.1%	80.1%	45.1%	93%	66.9%	51.3%	49.7%	50.4%	62.3%	51.5%	42.1%	47.3%	36.9%	27.5%
C[C@]12CC[C@H](O)CC1=CC[C@@H]1[C@@H]2CC[C@]2(C)C(c3cccnc3)=CC[C@@H]12 [Abiraterone] (50 nM)	100%	96.5%	101%	106%	105%	95%	101%	109%	110%	116%	111%	107%	63.7%	58%	96.5%	104%	128%	108%	104%	101%	106%	108%	81.5%	105%	107%	104%	124%	95.1%	100%	104%	99.8%	103%	99.7%	99.7%	101%	105%	103%
CC(C)c1c(C(=O)Nc2ccccc2)c(-c2ccccc2)c(-c2ccc(F)cc2)n1CC[C@@H](O)C[C@@H](O)CC(=O)O [Atorvastatin] (100 nM)	103%	98.1%	98.4%	80.9%	109%	94.1%	103%	109%	88.1%	81.6%	86.4%	93.4%	–	105%	109%	99.2%	120%	98%	94.8%	94%	103%	108%	103%	103%	98.6%	103%	105%	102%	98%	102%	98.4%	97.5%	91.5%	111%	93.8%	98.9%	98.9%
O=C(O)CCCc1ccc(N(CCCl)CCCl)cc1 [Chlorambucil] (100 nM)	101%	101%	92.9%	–	85.3%	94.9%	102%	94.9%	99%	98.2%	107%	105%	101%	102%	84.8%	102%	118%	98.8%	98.7%	108%	96.6%	107%	79.5%	105%	104%	103%	100%	94%	103%	102%	99.9%	106%	99.3%	104%	106%	98.6%	106%
CO[C@H]1C[C@@H]2CC[C@@H](C)[C@@](O)(O2)C(=O)C(=O)N2CCCC[C@H]2C(=O)O[C@H]([C@H](C)C[C@@H]2CC[C@@H](OCCO)[C@H](OC)C2)CC(=O)[C@H](C)/C=C(\C)[C@@H](O)[C@@H](OC)C(=O)[C@H](C)C[C@H](C)/C=C/C=C/C=C/1C [Everolimus] (1 nM)	96.7%	79.8%	106%	85.8%	94.4%	109%	96.3%	79.1%	89.6%	99.9%	83.1%	67.1%	80%	105%	98.3%	103%	121%	102%	91.9%	63.6%	77.8%	72%	72.1%	69.3%	83%	72.4%	98.2%	75.2%	91.9%	70.6%	91.6%	82.9%	83.7%	82.7%	57.1%	71.6%	65.9%
Cc1ccc(NC(=O)c2ccc(CN3CCN(C)CC3)cc2)cc1Nc1nccc(-c2cccnc2)n1 [Imatinib] (100 nM)	99.8%	104%	96.8%	–	106%	102%	102%	63.2%	108%	112%	111%	62.7%	70.4%	119%	110%	102%	110%	101%	99%	109%	106%	111%	107%	97.9%	103%	104%	97%	98%	98.6%	106%	104%	96.8%	103%	111%	106%	107%	105%
Nc1nc(OCc2cc(Br)cs2)c2[nH]cnc2n1 [Lomeguatrib] (100 nM)	102%	95.1%	100%	63.5%	92.9%	103%	101%	96.5%	100%	104%	–	100%	97.3%	110%	98.3%	106%	134%	103%	98.8%	99.2%	99.2%	102%	84.8%	101%	101%	106%	111%	101%	106%	99%	106%	98.2%	102%	95.2%	95.4%	100%	106%
COc1ccccc1S(=O)(=O)Nc1ccc2c(c1)CN(C)C(=O)N2 [PFI-1] (100 nM)	105%	118%	106%	–	102%	115%	110%	82.6%	111%	51.5%	78.4%	96.8%	92.9%	123%	79.4%	115%	125%	106%	97.4%	99.4%	106%	105%	79%	96.6%	100%	100%	87.7%	91.4%	94.5%	99.6%	111%	99.5%	104%	105%	96.8%	104%	105%
